The values below come from paper PMC11255275, “Structural insights into the triple agonism at GLP-1R, GIPR and GCGR manifested by retatrutide” (Cell Discovery, 2024).

Type in all cases: cell-based
The target in assay [1] is T1, GCGR mutants (Homo sapiens, UniProt P47871, Q131A).
T1 construct: expressed in transfected cells; host or cells: HEK-293T
Kind of assay: cAMP accumulation, single-point mutated GCGR. The note with it: GCGR Q131(1.29b)A; HEK-293T, 40 min, TR-FRET; mean ± S.E.M., n at least 3. The procedure:
(§1) HEK-293T cells were maintained at 37°C in 5% CO2 incubator and seeded onto 6-well cell […]
(§2) culture plates before transfection. After overnight culture, the cells were transiently transfected […]
(§3) with various constructs using Lipofectamine 2000 transfection reagent (Invitrogen). After 24 h, […]
(§4) the transfected cells were seeded onto 384-microtiter plates at a density of 3,000 cells per well […]
(§5) in stimulation buffer (HBSS supplemented with 5 mM HEPES, 0.1% (w/v) casein and 0.5 mM […]
(§6) 3-isobutyl-1-methylxanthine). Different concentrations of retatrutide in stimulation buffer were […]
(§7) added, and the stimulation lasted for 40 min. The reaction was stopped by addition of cAMP […]
(§8) detection buffer containing Eu-cAMP tracer and ULight-anti-cAMP. Plates were then incubated for […]
(§9) 60 min at RT. Time-resolved FRET signals were measured at 620 nm and 665 nm, respectively, by […]
(§10) an EnVision multilabel plate reader (PerkinElmer). Data were analyzed in GraphPad PRISM 9.5 […]
(§11) and all values were normalized to that of the wild-type (WT).
(§12) Supplementary Fig. 5 Effects of receptor mutation on retatrutide-induced cAMP […]
(§13) accumulation. a-c, Signaling profiles of GLP-1R (a), GIPR (b) and GCGR (c) mutants. cAMP […]
(§14) accumulation was measured in wild-type (WT) and single-point mutated GLP-1R, GIPR or […]
(§15) GCGR expressing HEK-293T cells. cAMP levels were normalized to the maximum response […]
(§16) of the WT and dose-response curves were analyzed using a three-parameter logistic equation.
(§17) Data were generated and graphed as means ± S.E.M. of at least three independent experiments performed in quadruplicate.
(§18) (1 picture or pasted object on this page, not shown here)
(§19) Supplementary Ta b l e S 5 Effects of the ligand-binding pocket residue mutation on retatrutide- […]
(§20) induced cAMP signaling at GLP-1R, GIPR or GCGR. […]
(§21) cAMP levels were normalized to the maximum response of the wild-type (WT) and dose-response […]
(§22) curves were analyzed using a three-parameter logistic equation to obtain pEC50 and Emax values. The […]
(§23) experiments were carried out independently at least three times. Data shown are means ± S.E.M. One- […]
(§24) way ANOVA was used to determine statistical difference. N.D., values that could not be determined due […]
(§25) to incomplete curve fits. *P< 0.05, **P< 0.01, ***P< 0.001 and ****P<0.0001.

The target in assay [2] is T2, GCGR mutants (Homo sapiens, UniProt P47871, D385A).
T2 construct: expressed in transfected cells; host or cells: HEK-293T
As to the kind of experiment: cAMP accumulation, single-point mutated GCGR. The note with it: GCGR D385(7.42b)A, HEK-293T, 40 min, TR-FRET, mean ± S.E.M., n at least 3. The procedure:
as §1, §2, §3, §4, §5, §6, §7, §8, §9, §10, §11, §12, §13, §14, §15, §16, §17, §18, §19, §20, §21, §22, §23, §24, §25
A general note: cAMP levels reflect the balance of adenylyl cyclase and phosphodiesterase activity.

Assay [3] concerns the target T3, GCGR mutants (Homo sapiens, UniProt P47871, W87A).
T3 construct: expressed in transfected cells; host or cells: HEK-293T
Kind of assay: cAMP accumulation, single-point mutated GCGR. The note with it: GCGR W87(ECD)A, HEK-293T, 40 min, TR-FRET, mean ± S.E.M., n at least 3. The procedure:
as §1, §2, §3, §4, §5, §6, §7, §8, §9, §10, §11, §12, §13, §14, §15, §16, §17, §18, §19, §20, §21, §22, §23, §24, §25

Assay [4] has as its target T4, GCGR mutants (Homo sapiens, UniProt P47871, Q293A).
T4 construct: expressed in transfected cells; host or cells: HEK-293T
Kind of assay: cAMP accumulation, single-point mutated GCGR. The note with it: GCGR Q293(ECL2)A, HEK-293T, 40 min, TR-FRET, mean ± S.E.M., n at least 3. The method, then: as §1, §2, §3, §4, §5, §6, §7, §8, §9, §10, §11, §12, §13, §14, §15, §16, §17, §18, §19, §20, §21, §22, §23, §24, §25

For assay [5], the target named is T5, GCGR mutants (Homo sapiens, UniProt P47871, K205A).
T5 construct: expressed in transfected cells; host or cells: HEK-293T
Kind of assay: cAMP accumulation, single-point mutated GCGR. The note with it: GCGR K205(ECL1)A; HEK-293T, 40 min, TR-FRET; mean ± S.E.M., n at least 3. The procedure: as §1, §2, §3, §4, §5, §6, §7, §8, §9, §10, §11, §12, §13, §14, §15, §16, §17, §18, §19, §20, §21, §22, §23, §24, §25

Assay [6] concerns the target T6, GLP-1R mutants (Homo sapiens, UniProt P43220, E387A).
T6 construct: expressed in transfected cells; host or cells: HEK-293T
Kind of assay: cAMP accumulation, single-point mutated GLP-1R. The note with it: GLP-1R E387(7.42b)A; HEK-293T, 40 min, TR-FRET; mean ± S.E.M., n at least 3. The method, then: as §1, §2, §3, §4, §5, §6, §7, §8, §9, §10, §11, §12, §13, §14, §15, §16, §17, §18, §19, §20, §21, §22, §23, §24, §25

The target in assay [7] is T7, GLP-1R mutants (Homo sapiens, UniProt P43220, R299A).
T7 construct: expressed in transfected cells; host or cells: HEK-293T
Kind of assay: cAMP accumulation, single-point mutated GLP-1R. The note with it: GLP-1R R299(ECL2)A, HEK-293T, 40 min, TR-FRET, mean ± S.E.M., n at least 3. The procedure: as §1, §2, §3, §4, §5, §6, §7, §8, §9, §10, §11, §12, §13, §14, §15, §16, §17, §18, §19, §20, §21, §22, §23, §24, §25

For assay [8], the target named is T8, GLP-1R mutants (Homo sapiens, UniProt P43220, Y145Q).
T8 construct: expressed in transfected cells; host or cells: HEK-293T
As to the kind of experiment: cAMP accumulation, single-point mutated GLP-1R. The note with it: GLP-1R Y145(1.40b)Q, HEK-293T, 40 min, TR-FRET, mean ± S.E.M., n at least 3. The procedure:
as §1, §2, §3, §4, §5, §6, §7, §8, §9, §10, §11, §12, §13, §14, §15, §16, §17, §18, §19, §20, §21, §22, §23, §24, §25

T3 sequence (P47871 26-477 W87A): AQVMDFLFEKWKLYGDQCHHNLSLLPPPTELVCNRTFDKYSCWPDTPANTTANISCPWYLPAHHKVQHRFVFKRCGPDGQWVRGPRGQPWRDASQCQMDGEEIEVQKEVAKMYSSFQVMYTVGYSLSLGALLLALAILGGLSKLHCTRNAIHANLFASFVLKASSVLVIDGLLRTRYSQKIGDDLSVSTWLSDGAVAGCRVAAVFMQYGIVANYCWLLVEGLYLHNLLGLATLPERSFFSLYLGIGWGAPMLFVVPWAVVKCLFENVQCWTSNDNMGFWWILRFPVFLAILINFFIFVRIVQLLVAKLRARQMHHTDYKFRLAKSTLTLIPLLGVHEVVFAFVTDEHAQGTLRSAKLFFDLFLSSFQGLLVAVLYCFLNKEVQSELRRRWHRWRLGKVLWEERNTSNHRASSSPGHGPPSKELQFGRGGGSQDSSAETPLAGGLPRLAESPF
T6 sequence (P43220 24-463 E387A): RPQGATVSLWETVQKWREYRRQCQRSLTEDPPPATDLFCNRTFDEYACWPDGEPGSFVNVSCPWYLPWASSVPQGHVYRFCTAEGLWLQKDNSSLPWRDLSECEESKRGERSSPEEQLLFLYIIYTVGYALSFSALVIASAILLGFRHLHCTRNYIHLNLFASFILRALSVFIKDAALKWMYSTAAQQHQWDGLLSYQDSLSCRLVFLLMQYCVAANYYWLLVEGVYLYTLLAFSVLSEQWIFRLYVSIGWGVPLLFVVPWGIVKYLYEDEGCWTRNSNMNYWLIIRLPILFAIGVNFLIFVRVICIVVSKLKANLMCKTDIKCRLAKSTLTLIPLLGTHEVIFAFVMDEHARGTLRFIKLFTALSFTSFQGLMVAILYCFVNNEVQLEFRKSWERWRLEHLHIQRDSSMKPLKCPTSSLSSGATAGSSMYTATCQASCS
T5 sequence (P47871 26-477 K205A): as the sequence (P47871 26-477 W87A) above, with A62W, K180A counted along it
T4 sequence (P47871 26-477 Q293A): as the sequence (P47871 26-477 W87A) above, with A62W, Q268A counted along it
T7 sequence (P43220 24-463 R299A): as the sequence (P43220 24-463 E387A) above, with R276A, A364E counted along it
T2 sequence (P47871 26-477 D385A): as the sequence (P47871 26-477 W87A) above, with A62W, D360A counted along it
T8 sequence (P43220 24-463 Y145Q): as the sequence (P43220 24-463 E387A) above, with Y122Q, A364E counted along it
T1 sequence (P47871 26-477 Q131A): as the sequence (P47871 26-477 W87A) above, with A62W, Q106A counted along it

As usually defined, the EC50 is the midpoint of the concentration-response curve. Read a high EC50 as a need for much substance. Consider `CC[C@H](C)[C@H](NC(=O)[C@H](Cc1ccccc1)NC(=O)[C@H](C)NC(=O)C(C)(C)NC(=O)[C@H](CCC(N)=O)NC(=O)[C@H](C)NC(=O)[C@H](CCCCNC(=O)COCCOCCNC(=O)CC[C@H](NC(=O)CCCCCCCCCCCCCCCCCCC(=O)O)C(=O)O)NC(=O)[C@H](CCCCN)NC(=O)[C@H](CC(=O)O)NC(=O)[C@H](CC(C)C)NC(=O)[C@](C)(CC(C)C)NC(=O)[C@@H](NC(=O)[C@H](CO)NC(=O)[C@H](Cc1ccc(O)cc1)NC(=O)[C@H](CC(=O)O)NC(=O)[C@H](CO)NC(=O)[C@@H](NC(=O)[C@H](Cc1ccccc1)NC(=O)[C@@H](NC(=O)CNC(=O)[C@H](CCC(N)=O)NC(=O)C(C)(C)NC(=O)[C@@H](N)Cc1ccc(O)cc1)[C@@H](C)O)[C@@H](C)O)[C@@H](C)CC)C(=O)N[C@@H](CCC(=O)O)C(=O)N[C@@H](Cc1ccc(O)cc1)C(=O)N[C@@H](CC(C)C)C(=O)N[C@@H](CC(C)C)C(=O)N[C@@H](CCC(=O)O)C(=O)NCC(=O)NCC(=O)N1CCC[C@H]1C(=O)N[C@@H](CO)C(=O)N[C@@H](CO)C(=O)NCC(=O)N[C@@H](C)C(=O)N1CCC[C@H]1C(=O)N1CCC[C@H]1C(=O)N1CCC[C@H]1C(=O)N[C@@H](CO)C(N)=O` [retatrutide], for which the “Emax ± S.E.M. (% WT)” value at GCGR mutants [1] is 100.15 ± 1.51 % WT; on GCGR mutants [2] it was 100.58 ± 1.33 % WT; on GCGR mutants [3] it was 101.97 ± 3.51 % WT; on GCGR mutants [4] it was 99.73 ± 0.94 % WT; at GCGR mutants [5], 100.00 ± 2.06 % WT; at GLP-1R mutants [6] it was 100.40 ± 3.44 % WT. In addition, the results for the “Emax ± S.E.M. (% WT)” value at GLP-1R mutants [7] and at GLP-1R mutants [8] (***P < 0.001) were 101.97 ± 3.92 % WT and 73.89 ± 5.95 % WT, respectively. The EC50 is 0.0479 nM on GCGR mutants [2] (****P < 0.0001); 0.631 nM on GCGR mutants [3] (****P < 0.0001); 0.00324 nM at GCGR mutants [4] (**P < 0.01); 0.00933 nM at GCGR mutants [5]; 0.00933 nM on GLP-1R mutants [6]; 0.0417 nM at GLP-1R mutants [7] (***P < 0.001). Moreover, the EC50 on GLP-1R mutants [8] (****P < 0.0001) was 0.355 nM.
